In patent US20240124460A1, “METHODS AND COMPOSITIONS FOR TARGETED PROTEIN DEGRADATION” (Ranok Therapeutics (Hangzhou) Co. Ltd., priority 2020, published 2024) one finds EC50, IC50 and ERBB2 degradation data, which are given here for ten compounds.

Read-outs that look alike come from different tables or passages of the source. A value given as a limit tells only on which side of the number the result lay.

The subject of assay [1] is MV-4-11 human acute myeloid leukemia. Kind of assay: MV-4-11 CCK-8 proliferation assay. Type of assay: cell-based. To be noted: MV-4-11 cells, 72 hr. The gist of the method: (§1)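 CCK-8 absorbance read-out, with inhibition expressed against DMSO-treated cells after subtracting a cell-free DMSO medium blank. Compounds tested over a 3-fold dilution series spanning 20 μM to 1.02 nM; lines grown essentially as ATCC recommends.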
(Tetrazolium assays rely on reduction of a dye to a coloured formazan, in cell work by metabolically active cells.)

Assay [2] deals with U-87 MG human glioblastoma. Put plainly: U87 MG CCK-8 proliferation assay. Type of assay: cell-based. Particulars: U-87 MG cells, read-out: U87MG CCK-8. In short, it runs like this: as §1
The target in a further assay is T1, HSP90α protein (Homo sapiens, UniProt P07900).
T1 construct: purchased BPS Bioscience #50298
Put plainly: HSP90α-binding FP (BODIPY) assay. Particulars: FP competition with BODIPY-labeled RNK04010. In short, it runs like this:
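Fluorescence polarization measured competition with N-terminal human HSP90α, using either FITC-geldanamycin or BODIPY-labelled triazolone RNK04010 as tracer (5 nM final each). Compounds were tested in 2.5-fold dilutions from 20 μM to 5.2 nM, with incubation at 25 °C for 120 min (FITC) or 300 min (BODIPY).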

A further assay relates to ERBB2. Put plainly: ERBB2 (HER2) flow cytometry protein degradation assay in BT-474 cells. Type of assay: cell-based, human. Particulars: DC50, BT-474 cells, 24 hr. In short, it runs like this: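 BT-474 cells trypsinised after compound treatment and stained with PE-conjugated anti-ERBB2 antibody, 30 min at 25° C in the dark, then fixed in 1% paraformaldehyde for flow cytometry. % inhibition = 100−(D−B)/(S−B)*100, using treated, untreated-stained and unstained cell fluorescence.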
(In flow cytometry, cells or beads pass a laser one at a time.)

A further assay addresses MAPK7 (Homo sapiens, UniProt Q13164). Kind of assay: MAPK7 kinase assay (ADP-Glo). Format: biochemical. The arrangement: purchased Carna Biosciences #04-146. Particulars: ATP 340 μM. The protocol:
The inhibition of MAPK7 kinase activity by test compounds was measured by the ADP-Glo Kinase Assay (Promega, #V6930), following the manufacturer's instructions, except as noted. 3-fold serial dilutions of each test compound were prepared ranging from 50 μM to 2.54 nM. Also, as a positive control, a 4-fold serial dilution of the MAPK7 inhibitor, XMD17-109 (MedChemExpress, #HY-15665) was prepared ranging from 10 μM to 0.04 nM. In brief, in 384-well plates, test compounds were added to the kinase reaction mix containing recombinant MAPK7 protein (Carna Biosciences, #04-146; 20 nM final concentration), myelin basic protein (SignalChem Biotech, #M42-54G; 0.1 mg/ml final concentration) and ATP (340 μM final concentration), then mixed by shaking and incubated with ADP-Glo Reagent and Kinase Detection Reagent. Luminescence was measured on a BioTek plate reader.
Lumpositive: The average ratio for 10 wells of positive controls (10 μM XMD17-109) across the plate.
Lumvehicle: The average ratio for 10 wells of negative controls (0.5% DMSO) across the plate.

Chain of MAPK7 (Q13164 whole entry): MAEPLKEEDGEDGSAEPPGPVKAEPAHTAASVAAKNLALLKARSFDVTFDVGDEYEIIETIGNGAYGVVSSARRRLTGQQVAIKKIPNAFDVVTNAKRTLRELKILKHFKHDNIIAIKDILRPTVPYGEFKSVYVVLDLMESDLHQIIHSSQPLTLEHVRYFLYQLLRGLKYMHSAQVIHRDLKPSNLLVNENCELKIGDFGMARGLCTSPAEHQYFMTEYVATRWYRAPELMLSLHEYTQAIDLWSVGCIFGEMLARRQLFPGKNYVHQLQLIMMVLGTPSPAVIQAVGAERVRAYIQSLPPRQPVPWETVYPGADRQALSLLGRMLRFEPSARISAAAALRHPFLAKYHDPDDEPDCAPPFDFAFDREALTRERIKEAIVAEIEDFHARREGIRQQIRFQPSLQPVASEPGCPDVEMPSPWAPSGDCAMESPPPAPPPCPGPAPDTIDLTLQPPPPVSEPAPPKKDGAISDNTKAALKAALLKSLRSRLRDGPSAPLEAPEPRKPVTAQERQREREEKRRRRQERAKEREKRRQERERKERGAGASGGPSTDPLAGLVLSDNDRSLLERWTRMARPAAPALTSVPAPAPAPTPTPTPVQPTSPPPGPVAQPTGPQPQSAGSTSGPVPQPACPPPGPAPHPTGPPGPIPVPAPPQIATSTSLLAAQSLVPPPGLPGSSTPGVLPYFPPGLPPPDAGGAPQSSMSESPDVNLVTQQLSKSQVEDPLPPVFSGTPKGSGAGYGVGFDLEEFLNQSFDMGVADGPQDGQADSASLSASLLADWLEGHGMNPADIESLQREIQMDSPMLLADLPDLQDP

One may read the IC50 as the midpoint of a concentration-inhibition curve. A lower IC50 goes with greater potency in that assay. `CCOc1cc(N2CCC(C(=O)NCCOCCNC(=O)O[C@H]3CC[C@H](Nc4cc(-n5nc(C(F)(F)F)c6c5CC(C)(C)CC6=O)ccc4C(N)=O)CC3)CC2)ccc1Nc1ncc2c(n1)N(S(C)(=O)=O)c1ccccc1C(=O)N2C` [Compound 105, (1R,4R)-4-((2-carbamoyl-5-(6,6-dimethyl-4-oxo-3-(trifluoromethyl)-4,5,6,7-tetrahydro-1H-indazol-1-yl)phenyl)amino)cyclohexyl (2-(2-(1-(3-ethoxy-4-((5-methyl-11-(methylsulfonyl)-6-oxo-6,11-dihydro-5H-benzo[e]pyrimido[5,4-b][1,4]diazepin-2-yl)amino)phenyl)piperidine-4-carboxamido)ethoxy)ethyl)carbamate]: the EC50 is 0.1 to 1 µM in assay [1] (Homo sapiens, MV4-11) and over 1 µM in assay [2] (Homo sapiens, U-87 MG, 72 h). Besides, the IC50 at HSP90α protein and at MAPK7 was over 1 µM throughout. In addition, in the assay with ERBB2, the ERBB2 degradation result was “C (DC50 > 1000 nM)”.
With `CCNC(=O)c1nnc(-c2cc(CC)c(O)cc2O)n1-c1ccc(CN2CCN(CC3CCN(C(=O)C4CCN(c5ccc(N(CC)c6ncc7c(n6)N(S(C)(=O)=O)c6ccccc6C(=O)N7C)c(OCC)c5)CC4)CC3)CC2)cc1` [Compound 135, 4-(4-((4-((1-(1-(3-ethoxy-4-(ethyl(5-methyl-11-(methylsulfonyl)-6-oxo-6,11-dihydro-5H-benzo[e]pyrimido[5,4-b][1,4]diazepin-2-yl)amino)phenyl)piperidine-4-carbonyl)piperidin-4-yl)methyl)piperazin-1-yl)methyl)phenyl)-N-ethyl-5-(5-ethyl-2,4-dihydroxyphenyl)-4H-1,2,4-triazole-3-carboxamide], the EC50 in assay [1] (Homo sapiens, MV4-11) was under 0.1 µM; in assay [2] (Homo sapiens, U-87 MG, 72 h) it was 0.1 to 1 µM. Further, the IC50 is under 0.1 µM at HSP90α protein and over 1 µM on MAPK7.
For the compound `CCOc1cc(N2CCC(C(=O)N3CCC(N4CCN(Cc5ccc(-n6c(O)nnc6-c6cc(C(C)C)c(O)cc6O)cc5)CC4)CC3)CC2)ccc1Nc1ncc2c(n1)N(C)c1ccccc1C(=O)N2C.Cl` [Compound 042, 2-((4-(4-(4-(4-(4-(3-(2,4-dihydroxy-5-isopropylphenyl)-5-hydroxy-4H-1,2,4-triazol-4-yl)benzyl)piperazin-1-yl)piperidine-1-carbonyl)piperidin-1-yl)-2-ethoxyphenyl)amino)-5,11-dimethyl-5H-benzo[e]pyrimido[5,4-b][1,4]diazepin-6(11H)-one], the EC50 in assay [1] and in assay [2] (72 hr) was under 0.1 µM in each case. In addition, the IC50 on HSP90α protein was under 0.1 µM; at MAPK7, over 1 µM. In addition, the ERBB2 degradation entry in the assay on ERBB2 was “B (DC50 = 100-1000 nM)”.
Take `CCOc1cc(N2CCC(C(=O)N3CCC(CN4CCN(Cc5ccc(-n6c(O)nnc6-c6cc(C(C)C)c(O)cc6O)cc5)CC4)CC3)CC2)ccc1N(CC)c1ncc2c(n1)N(C)c1ccccc1C(=O)N2C` [Compound 133, 2-((4-(4-(4-((4-(4-(3-(2,4-dihydroxy-5-isopropylphenyl)-5-hydroxy-4H-1,2,4-triazol-4-yl)benzyl)piperazin-1-yl)methyl)piperidine-1-carbonyl)piperidin-1-yl)-2-ethoxyphenyl)(ethyl)amino)-5,11-dimethyl-5,11-dihydro-6H-benzo[e]pyrimido[5,4-b][1,4]diazepin-6-one]: the EC50 is under 0.1 µM in assay [1] (Homo sapiens, MV4-11) and 0.1 to 1 µM in assay [2] (Homo sapiens, U-87 MG, 72 h). The figures for the IC50 on HSP90α protein and on MAPK7 were under 0.1 µM and over 1 µM, respectively.
Consider `CCOc1cc(N2CCC(C(=O)N3CCC(CN4CCN(Cc5ccc(-n6c(O)nnc6-c6cc(C(C)C)c(O)cc6O)cc5)CC4)CC3)CC2)ccc1N(CC)c1ncc2c(n1)N(S(C)(=O)=O)c1ccccc1C(=O)N2C` [Compound 099, 2-((4-(4-(4-((4-(4-(3-(2,4-dihydroxy-5-isopropylphenyl)-5-hydroxy-4H-1,2,4-triazol-4-yl)benzyl)piperazin-1-yl)methyl)piperidine-1-carbonyl)piperidin-1-yl)-2-ethoxyphenyl)(ethyl)amino)-5-methyl-11-(methylsulfonyl)-5,11-dihydro-6H-benzo[e]pyrimido[5,4-b][1,4]diazepin-6-one], for which the EC50 is under 0.1 µM in assay [1] (Homo sapiens, MV4-11) and under 0.1 µM in assay [2] (Homo sapiens, U-87 MG, 72 h). Besides, the IC50 at HSP90α protein is under 0.1 µM; at MAPK7, over 1 µM. Also, in the assay on ERBB2, the ERBB2 degradation result is “B (DC50 = 100-1000 nM)”.
For the compound `CCOc1cc(N2CCC(C(=O)NCCOCCNC(=O)O[C@H]3CC[C@H](Nc4cc(-n5nc(C(F)(F)F)c6c5CC(C)(C)CC6=O)ccc4C#N)CC3)CC2)ccc1Nc1ncc2c(n1)N(S(C)(=O)=O)c1ccccc1C(=O)N2C` [Compound 111, (1R,4R)-4-((2-((12-azanylidene)-l3-methyl)-5-(6,6-dimethyl-4-oxo-3-(trifluoromethyl)-4,5,6,7-tetrahydro-1H-indazol-1-yl)phenyl)amino)cyclohexyl (2-(2-(1-(3-ethoxy-4-((5-methyl-11-(methylsulfonyl)-6-oxo-6,11-dihydro-5H-benzo[e]pyrimido[5,4-b][1,4]diazepin-2-yl)amino)phenyl)piperidine-4-carboxamido)ethoxy)ethyl)carbamate], the EC50 was over 1 µM in assay [1] (Homo sapiens, MV4-11) and over 1 µM in assay [2] (Homo sapiens, U-87 MG, 72 h). In addition, the half-inhibitory concentration (IC50) on HSP90α protein and against MAPK7 was over 1 µM each time.
Consider “(1R,4R)-4-((2-((12-azanylidene)-l3-methyl)-5-(6,6-dimethyl-4-oxo-3-(trifluoromethyl)-4,5,6,7-tetrahydro-1H-indazol-1-yl)phenyl)amino)cyclohexyl (2-(2-(1-(3-ethoxy-4-(ethyl(5-methyl-11-(methylsulfonyl)-6-oxo-6,11-dihydro-5H-benzo[e]pyrimido[5,4-b][1,4]diazepin-2-yl)amino)phenyl)piperidine-4-carboxamido)ethoxy)ethyl)carbamate [Compound 113]”, for which the EC50 in assay [1] and in assay [2] (72 hr) was over 1 µM each time. Also, the IC50 at HSP90α protein and on MAPK7 was over 1 µM in each case.
Consider `CCOc1cc(N2CCC(C(=O)N3CCN(Cc4ccc(-n5c(O)nnc5-c5cc(C(C)C)c(O)cc5O)cc4)CC3)CC2)ccc1N(C)c1ncc2c(n1)N(C)c1ccccc1C(=O)N2C` [Compound 047, 2-((4-(4-(4-(4-(3-(2,4-dihydroxy-5-isopropylphenyl)-5-hydroxy-4H-1,2,4-triazol-4-yl)benzyl)piperazine-1-carbonyl)piperidin-1-yl)-2-ethoxyphenyl)(methyl)amino)-5,11-dimethyl-5,11-dihydro-6H-benzo[e]pyrimido[5,4-b][1,4]diazepin-6-one], for which the EC50 was under 0.1 µM in assay [1] (Homo sapiens, MV4-11) and 0.1 to 1 µM in assay [2] (Homo sapiens, U-87 MG, 72 h). Also, the IC50 is 0.1 to 1 µM on HSP90α protein and over 1 µM on MAPK7. Also, the ERBB2 degradation result in the assay on ERBB2 is reported as “B (DC50 = 100-1000 nM)”.
On to “(1R,4R)-4-((2-cyano-5-(6,6-dimethyl-4-oxo-3-(trifluoromethyl)-4,5,6,7-tetrahydro-1H-indazol-1-yl)phenyl)amino)cyclohexyl (2-(2-(1-(4-((5,11-dimethyl-6-oxo-6,11-dihydro-5H-benzo[e]pyrimido[5,4-b][1,4]diazepin-2-yl)amino)-3-ethoxyphenyl)piperidine-4-carboxamido)ethoxy)ethyl)carbamate [Compound 109]”, for which the EC50 in assay [1] and in assay [2] (72 hr) was over 1 µM in each case. The IC50 at HSP90α protein and against MAPK7 was over 1 µM throughout.
As to `CCOc1cc(N2CCC(C(=O)N3CCC(COc4ccc(Nc5cc(-n6nc(C(F)(F)F)c7c6CC(C)(C)CC7=O)ccc5C(N)=O)cc4)CC3)CC2)ccc1Nc1ncc2c(n1)N(S(C)(=O)=O)c1ccccc1C(=O)N2C` [Compound 110, 4-(6,6-dimethyl-4-oxo-3-(trifluoromethyl)-4,5,6,7-tetrahydro-1H-indazol-1-yl)-2-((4-((1-(1-(3-ethoxy-4-((5-methyl-11-(methylsulfonyl)-6-oxo-6,11-dihydro-5H-benzo[e]pyrimido[5,4-b][1,4]diazepin-2-yl)amino)phenyl)piperidine-4-carbonyl)piperidin-4-yl)methoxy)phenyl)amino)benzamide], the EC50 in assay [1] (Homo sapiens, MV4-11) was over 1 µM; in assay [2] (Homo sapiens, U-87 MG, 72 h), over 1 µM. The IC50 on HSP90α protein and on MAPK7 was over 1 µM throughout.
